Data on 22 compounds can be found in patent US10077241B2 (Janssen Pharmaceutica NV, priority 2014, dated 2018).

For one test, the target named is T1, TGR5 (STC1 cell line) (Mus musculus, UniProt Q80SS6).
T1 sequence (Q80SS6 1-329): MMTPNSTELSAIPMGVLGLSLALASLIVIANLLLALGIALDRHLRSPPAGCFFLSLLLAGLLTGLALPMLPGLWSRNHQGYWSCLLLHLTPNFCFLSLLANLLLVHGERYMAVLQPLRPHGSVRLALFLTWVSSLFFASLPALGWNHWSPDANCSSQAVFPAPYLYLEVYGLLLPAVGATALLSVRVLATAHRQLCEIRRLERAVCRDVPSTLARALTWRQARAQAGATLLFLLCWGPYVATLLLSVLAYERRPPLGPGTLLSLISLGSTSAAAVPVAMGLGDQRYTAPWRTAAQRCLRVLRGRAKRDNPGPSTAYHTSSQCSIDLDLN
Briefly: STC1 cAMP Agonist EC50 Determination.

In test [1] the target is T2, TGR5 (NCI-H716 cell line) (Homo sapiens, UniProt Q8TDU6).
T2 sequence (Q8TDU6 1-330): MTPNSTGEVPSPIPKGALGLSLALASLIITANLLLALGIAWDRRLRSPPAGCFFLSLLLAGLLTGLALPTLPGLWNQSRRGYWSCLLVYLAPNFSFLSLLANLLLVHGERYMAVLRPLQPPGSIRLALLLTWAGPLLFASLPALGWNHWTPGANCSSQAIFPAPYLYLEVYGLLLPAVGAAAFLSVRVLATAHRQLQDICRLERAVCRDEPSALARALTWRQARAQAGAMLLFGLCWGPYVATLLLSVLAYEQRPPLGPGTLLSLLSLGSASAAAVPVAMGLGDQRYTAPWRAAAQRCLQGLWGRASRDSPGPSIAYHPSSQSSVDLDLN
The test is described as follows: NCI-H716 cAMP Agonist EC50 Determination.
Method: Cells were cultured in suspension using RPM containing: 10% HI FBS, and 1× Penn/Strep and were cryostored (1E7 cells/vial in 5% DMSO).
A Normalized signal (NS) is generated by the Envision for each well ((Read 1/Read 2)×10,000).
The data from the Envision were imported to an Excel worksheet. nM cAMP is calculated for each well from the cAMP standard curves located on each plate by first calculating the slope and deriving the intercept (b).
[formula] [formula] [formula] EC50 values were determined from a 4-point fit (Hill equation) of a single 11-point compound dosing.

Method for TGR5 (STC1 cell line): Cell stocks were maintained and grown in a sub-confluent state using standard cell culture procedures. The day before the experiment, the cells were harvested with non-enzymatic cell dissociation buffer and resuspended in complete growth media at 4E5 c/ml. […] The seeded plates were incubated overnight at 37° C.
On the day of the experiment, Assay Buffer containing: HBSS with Ca^2+and Mg^2+; 5 μM HEPES; 0.1% BSA; and, 0.5 μM IBMX was prepared. The growth medium was washed from the cell plates and replaced with 20 μL of Assay Buffer. […] The reaction was stopped by the addition of 20 μL 0.1% Formic Acid to all wells. Sixty minutes later 30 μL 3 M deuterated AMP was added to all wells (as a control for volume addition to the mass spec). Plates were mixed on a plate shaker for 1 min and centrifugated (5 min 3000 RPMs no brakes).
Plates were run on a 4000 QTrap triple-quadrapole Mass spectrometer in positive ion mode coupled with a Biocius RapidFire 300is. […] Two ions (cAMP and deuterated AMP were measured using Multiple Reaction Monitoring (MRM) in positive ion mode and the area under the curve (AUC) was determined for each of the ions.
The data from the Mass Spec/Rapid Plate AUC for cAMP and deuterated AMP were imported to an Excel worksheet. A Normalized signal (NS) was generated for each well=(cAMP AUC for the well/deut AMP AUC for the well)*average deut AMP AUC for the plate). nM cAMP was calculated for each well from the cAMP standard curves located on each plate by first calculating the slope and deriving the intercept (b).
EC50 values were determined from a 4-point fit (Hill equation) of a single 11-point compound dosing.

Regarding `C=C1COC(c2ccc(Cl)c(OC)c2)c2c1nc(SCc1c(F)cccc1Cl)n2-c1ccc(F)cc1` (centres unmarked) [Example 137, 4-(4-chloro-3-methoxyphenyl)-2-((2-chloro-6-fluorobenzyl)thio)-3-(4-fluorophenyl)-7-methylene-3,4,6,7-tetrahydropyrano[3,4-d]imidazole], the values for the EC50 (on TGR5 (STC1 cell line); in test [1]) were 880 nM and more than 50 µM, respectively.

Consider `COc1ccc(C2(C)CCCc3nc(SCc4c(F)cc(CCN(C)C)cc4F)n(-c4ccc(F)cc4)c32)cc1OC` (centres unmarked) [Example 111, 2-(4-(((7-(3,4-dimethoxyphenyl)-1-(4-fluorophenyl)-7-methyl-4,5,6,7-tetrahydro-1H-benzo[d]imidazol-2-yl)thio)methyl)-3,5-difluorophenyl)-N,N-dimethylethanamine], for which the EC50 (usually the midpoint of the concentration-response curve) came to 200 nM at TGR5 (STC1 cell line) and 1.41 µM in test [1].

As to `COc1cc(C2CCCc3nc(SCc4c(F)cc(OCCOCCOCCOCCO)cc4F)n(-c4ccc(F)cc4)c32)ccc1Cl` (centres unmarked) [Example 23, 1-[4-([[7-(4-chloro-3-methoxyphenyl)-1-(4-fluorophenyl)-4,5,6,7-tetrahydro-1H-1,3-benzodiazol-2-yl]sulfanyl]methyl)-3,5-difluorophenyl]-1,4,7,10-tetraoxadodecan-12-ol], the EC50 at TGR5 (STC1 cell line) is 660 nM; in test [1], more than 50 µM.

Consider `CCOC(=O)CCc1cc(F)c(CSc2nc3c(n2-c2ccc(F)cc2)C(c2ccc(Cl)c(OC)c2)CCC3)c(F)c1` (centres unmarked) [Example 40, Ethyl 3-(4-((7-(4-chloro-3-methoxyphenyl)-1-(4-fluorophenyl)-4,5,6,7-tetrahydro-1H-benzo[d]imidazol-2-ylthio)methyl)-3,5-difluorophenyl)propanoate trifluoroacetic acid], for which the EC50 on TGR5 (STC1 cell line) is 1360 nM; in test [1], more than 50 µM.

As to `COc1cc(C2(C)CCCc3nc(SCc4ccncc4)n(-c4ccc(F)cc4)c32)ccc1Cl` (centres unmarked) [Example 88], the EC50 on TGR5 (STC1 cell line) was 4780 nM; in test [1], more than 50 µM.

For the compound `COCCNC(=O)c1cc(F)c(CSc2nc3c(n2-c2ccc(F)cc2)C(C)(c2ccc(F)c(OC)c2)CCC3)c(F)c1` (centres unmarked) [Example 124, 3,5-difluoro-4-(((7-(4-fluoro-3-methoxyphenyl)-1-(4-fluorophenyl)-7-methyl-4,5,6,7-tetrahydro-1H-benzo[d]imidazol-2-yl)thio)methyl)-N-(2-methoxyethyl)benzamide], the figures for the EC50 (at TGR5 (STC1 cell line); in test [1]) were 800 nM and more than 50 µM, respectively.

As for `COc1cc(C2CCCc3nc(SCc4c(F)cncc4Cl)n(-c4ccc(F)cc4)c32)ccc1Cl` (centres unmarked) [Example 55, 7-(4-chloro-3-methoxyphenyl)-2-[[(3-chloro-5-fluoropyridin-4-yl)methyl]sulfanyl]-1-(4-fluorophenyl)-4,5,6,7-tetrahydro-1H-1,3-benzodiazole bis(trifluoroacetic acid)], the EC50 on TGR5 (STC1 cell line) is 180 nM; in test [1], more than 50 µM.

In the case of `COc1cc(C2(C)CCCc3nc(SCc4c(F)cc(C(=O)NCCOCCOCCOCCO)cc4F)n(-c4ccc(F)cc4)c32)ccc1Cl` (centres unmarked) [Example 84, 4-((7-(4-chloro-3-methoxyphenyl)-1-(4-fluorophenyl)-7-methyl-4,5,6,7-tetrahydro-1H-benzo[d]imidazol-2-ylthio)methyl)-3,5-difluoro-N-(2-(2-(2-(2-hydroxyethoxy)ethoxy)ethoxy)ethyl)benzamide trifluoroacetic acid], the EC50 was found to be 340 nM at TGR5 (STC1 cell line) and 38.7 µM in test [1].

`COc1cc(C2CCCc3nc(SCc4ncccc4F)n(-c4ccc(F)cc4)c32)ccc1Cl` (centres unmarked) [Example 52, 2-((3-fluoropyridin-2-yl)methylthio)-7-(4-chloro-3-methoxyphenyl)-1-(4-fluorophenyl)-4,5,6,7-tetrahydro-1H-benzo[d]imidazole trifluoroacetic acid]: the EC50 at TGR5 (STC1 cell line) is 450 nM; in test [1], more than 50 µM.

For the compound `COc1cc(C2CCCc3nc(SCc4c(F)cncc4F)n(-c4ccc(F)cc4)c32)ccc1Cl` (centres unmarked) [Example 50, 7-(4-chloro-3-methoxyphenyl)-2-((3,5-difluoropyridin-4-yl)methylthio)-1-(4-fluorophenyl)-4,5,6,7-tetrahydro-1H-benzo[d]imidazole trifluoroacetic acid], the EC50 came to 280 nM on TGR5 (STC1 cell line) and 34.7 µM in test [1].

Turning to `COc1ccc(C2CCCc3nc(SCc4c(F)cc(C#N)cc4F)n(-c4ccc(F)cc4)c32)cc1OC` (centres unmarked) [Example 64, 4-(((7-(3,4-dimethoxyphenyl)-1-(4-fluorophenyl)-4,5,6,7-tetrahydro-1H-benzo[d]imidazol-2-yl)thio)methyl)-3,5-difluorobenzonitrile], the EC50 at TGR5 (STC1 cell line) turned out to be 150 nM; in test [1], 5.34 µM.

On to `COc1cc(C2CCCc3nc(SCc4c(F)cc(S(=O)(=O)NCCC[N+](C)(C)C)cc4F)n(-c4ccc(F)cc4)c32)ccc1Cl` (centres unmarked) [Example 22, 3-(4-((7-(4-chloro-3-methoxyphenyl)-1-(4-fluorophenyl)-4,5,6,7-tetrahydro-1H-benzo[d]imidazol-2-ylthio)methyl)-3,5-difluorophenylsulfonamido)-N,N,N-trimethylpropan-1-aminium 2,2,2-trifluoroacetate], for which the results for the EC50 (on TGR5 (STC1 cell line); in test [1]) were 32600 nM and more than 50 µM, respectively.

As to `COc1ccc(C2(C)CCCc3nc(SCc4c(F)cc(OCCN(C)C)cc4F)n(-c4ccc(F)cc4)c32)cc1OC` (centres unmarked) [Example 108, 2-(4-(((7-(3,4-dimethoxyphenyl)-1-(4-fluorophenyl)-7-methyl-4,5,6,7-tetrahydro-1H-benzo[d]imidazol-2-yl)thio)methyl)-3,5-difluorophenoxy)-N,N-dimethylethanamine], the EC50 was determined as 310 nM on TGR5 (STC1 cell line) and 0.68 µM in test [1].

In the case of `COc1cc(C2CCCc3nc(SCc4c(F)cccc4C(F)(F)F)n(-c4ccc(F)cc4)c32)ccc1Cl` (centres unmarked) [Example 15, 7-(4-chloro-3-methoxyphenyl)-2-([[2-fluoro-6-(trifluoromethyl)phenyl]methyl]sulfanyl)-1-(4-fluorophenyl)-4,5,6,7-tetrahydro-1H-1,3-benzodiazole], the results for the EC50 (at TGR5 (STC1 cell line); in test [1]) were 13300 nM and more than 50 µM, respectively.

On to `COc1cc(C2CCCc3nc(SCc4c(F)cccc4C#N)n(-c4ccc(F)cc4)c32)ccc1Cl` (centres unmarked) [Example 14, 2-([[7-(4-chloro-3-methoxyphenyl)-1-(4-fluorophenyl)-4,5,6,7-tetrahydro-1H-1,3-benzodiazol-2-yl]sulfanyl]methyl)-3-fluorobenzonitrile], for which the EC50 was 530 nM on TGR5 (STC1 cell line) and more than 50 µM in test [1].

For `COc1ccc(C2CCCc3nc(SCc4c(F)cc(OCCCl)cc4F)n(-c4ccc(F)cc4)c32)cc1OC` (centres unmarked) [Example 67, 2-((4-(2-chloroethoxy)-2,6-difluorobenzyl)thio)-7-(3,4-dimethoxyphenyl)-1-(4-fluorophenyl)-4,5,6,7-tetrahydro-1H-benzo[d]imidazole], the EC50 worked out at 500 nM on TGR5 (STC1 cell line) and 8.34 µM in test [1].

Regarding `COc1ccc(C2(C)CCCc3nc(SCc4c(F)cc(C#N)cc4F)n(-c4ccc(F)cc4)c32)cc1OC` (centres unmarked) [Example 102, 4-(((7-(3,4-dimethoxyphenyl)-1-(4-fluorophenyl)-7-methyl-4,5,6,7-tetrahydro-1H-benzo[d]imidazol-2-yl)thio)methyl)-3,5-difluorobenzonitrile], the EC50 on TGR5 (STC1 cell line) worked out at 30 nM; in test [1], 1.37 µM.

With `COc1cc(C2CCCc3nc(SCc4c(F)c[n+]([O-])cc4F)n(-c4ccc(F)cc4)c32)ccc1Cl` (centres unmarked) [Example 59, 4-((7-(4-chloro-3-methoxyphenyl)-1-(4-fluorophenyl)-4,5,6,7-tetrahydro-1H-benzo[d]imidazol-2-ylthio)methyl)-3,5-difluoropyridine 1-oxide trifluoroacetic acid], the EC50 at TGR5 (STC1 cell line) is 2020 nM; in test [1], more than 50 µM.

Consider `COc1cc(C2(C)CCCc3nc(SCc4ccccc4)n(-c4ccc(F)cc4)c32)ccc1Cl` (centres unmarked) [Example 87, 2-(benzylsulfanyl)-7-(4-chloro-3-methoxyphenyl)-1-(4-fluorophenyl)-7-methyl-4,5,6,7-tetrahydro-1H-1,3-benzodiazole], for which the EC50 on TGR5 (STC1 cell line) was 47800 nM; in test [1] it was more than 50 µM.

In the case of `COc1cc(C2(C)CCCc3nc(SCc4c(F)cc(C(=O)O)cc4F)n(-c4ccc(F)cc4)c32)ccc1Cl` (centres unmarked) [Example 81, 4-((7-(4-chloro-3-methoxyphenyl)-1-(4-fluorophenyl)-4,5,6,7-tetrahydro-7-methyl-1H-benzo[d]imidazol-2-ylthio)methyl)-3,5-difluorobenzoic acid trifluoroacetic acid], the values for the EC50 (on TGR5 (STC1 cell line); in test [1]) were 1750 nM and more than 50 µM, respectively.

In the case of `COc1cc(C2(C)CCCc3nc(SCc4c(F)cc(C(=O)NCCO)cc4F)n(-c4ccc(F)cc4)c32)ccc1Cl` (centres unmarked) [Example 94, 4-((7-(4-chloro-3-methoxyphenyl)-1-(4-fluorophenyl)-7-methyl-4,5,6,7-tetrahydro-1H-benzo[d]imidazol-2-ylthio)methyl)-3,5-difluoro-N-(2-hydroxyethyl)benzamide trifluoroacetic acid], the EC50 on TGR5 (STC1 cell line) is 410 nM; in test [1], more than 50 µM.

For `COc1ccc(C2(C)CCCc3nc(SCc4ccccc4)n(-c4ccc(F)cc4)c32)cc1OC` (centres unmarked) [Example 99, 2-(benzylthio)-7-(3,4-dimethoxyphenyl)-1-(4-fluorophenyl)-7-methyl-4,5,6,7-tetrahydro-1H-benzo[d]imidazole], the EC50 on TGR5 (STC1 cell line) was found to be 2390 nM; in test [1], 33.1 µM.
